The text below walks through data of US8901118B2, “Compounds and methods for kinase modulation, and indications therefor” (Plexxikon Inc., priority 2010, dated 2014).

The target of one experiment is CYP2C19 (Homo sapiens, UniProt P33261). The experiment in a line: CYP2C19 inhibition (fluorescent substrate CEC). Format: in vitro ADME. The note with it: read-out: Cyp IC50 2C19. In outline:
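IC50 derives from metabolite fluorescence against compound concentration, read at excitation 409 nm and emission 460 nm for CYP1A2/2C19 or 530 nm for CYP2C9/2D6. Incubations ran at 37° C for 15 min (1A2), 45 min (2C9) or 30 min (2C19, 2D6), after serial dilution into NADPH cofactor mix and 10 min preincubation.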

For a further experiment, the target named is TrkA kinase (Homo sapiens, UniProt P04629). The experiment is described as follows: TrkA kinase biochemical activity assay (AlphaScreen). The note with it: 100 μM ATP; read-out: Biochemical Inhibition IC50 TrkA. In a few lines: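 IC50 values come from AlphaScreen PY20/streptavidin bead signal versus compound concentration. Kinase reaction: 1 ng/well TrkA, 100 μM ATP, 30 nM biotin-(E4Y)10 substrate, Mn2+-containing Hepes buffer pH 7.5, 5% DMSO, 40 min, room temperature; TrkC assayed by the same approach.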
In general terms: Bead proximity is the source of the signal in Alpha formats.

What is called IC50 is the concentration needed to halve the response being measured.

Chain of CYP2C19 (P33261 whole entry): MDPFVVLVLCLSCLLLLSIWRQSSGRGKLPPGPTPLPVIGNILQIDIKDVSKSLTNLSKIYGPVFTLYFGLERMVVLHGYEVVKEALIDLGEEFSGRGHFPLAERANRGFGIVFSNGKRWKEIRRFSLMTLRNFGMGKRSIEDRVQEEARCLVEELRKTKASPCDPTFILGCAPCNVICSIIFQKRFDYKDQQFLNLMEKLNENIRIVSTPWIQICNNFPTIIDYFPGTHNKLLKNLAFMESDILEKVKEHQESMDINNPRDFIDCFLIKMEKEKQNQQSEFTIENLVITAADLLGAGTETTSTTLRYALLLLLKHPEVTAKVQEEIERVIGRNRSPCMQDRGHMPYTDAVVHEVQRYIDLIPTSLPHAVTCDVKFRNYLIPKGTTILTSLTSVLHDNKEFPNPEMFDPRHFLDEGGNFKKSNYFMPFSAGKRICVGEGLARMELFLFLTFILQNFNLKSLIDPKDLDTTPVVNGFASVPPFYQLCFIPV
Chain of TrkA kinase (P04629 33-796): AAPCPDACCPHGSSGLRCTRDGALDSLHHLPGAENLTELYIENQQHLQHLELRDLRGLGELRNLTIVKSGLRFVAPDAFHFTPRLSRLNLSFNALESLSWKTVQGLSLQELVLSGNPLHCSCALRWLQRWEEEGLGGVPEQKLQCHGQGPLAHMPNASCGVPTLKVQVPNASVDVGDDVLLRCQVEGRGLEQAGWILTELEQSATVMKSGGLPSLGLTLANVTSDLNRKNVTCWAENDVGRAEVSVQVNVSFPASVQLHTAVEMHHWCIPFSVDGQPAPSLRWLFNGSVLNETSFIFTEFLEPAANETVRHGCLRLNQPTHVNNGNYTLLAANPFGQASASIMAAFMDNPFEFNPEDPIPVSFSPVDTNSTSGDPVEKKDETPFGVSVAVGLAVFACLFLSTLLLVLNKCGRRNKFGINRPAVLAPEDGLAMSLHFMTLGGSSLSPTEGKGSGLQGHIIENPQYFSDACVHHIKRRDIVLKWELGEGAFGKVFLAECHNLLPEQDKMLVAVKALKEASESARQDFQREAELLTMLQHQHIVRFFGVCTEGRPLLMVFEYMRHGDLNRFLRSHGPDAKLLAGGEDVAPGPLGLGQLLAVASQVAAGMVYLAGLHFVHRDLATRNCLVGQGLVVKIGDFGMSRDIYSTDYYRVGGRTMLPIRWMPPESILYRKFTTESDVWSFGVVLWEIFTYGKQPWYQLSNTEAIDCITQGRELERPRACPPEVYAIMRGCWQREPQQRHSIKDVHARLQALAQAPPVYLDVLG

Consider `COCCOc1ncnc2[nH]cc(Cc3ccc(Nc4ccc(OC)nc4)nc3F)c12` [Compound P-4019, {6-Fluoro-5-[4-(2-methoxy-ethoxy)-7H-pyrrolo[2,3-d]pyrimidin-5-ylmethyl]-pyridin-2-yl}-(6-methoxy-pyridin-3-yl)-amine], for which the IC50 is 5 to 10 µM on CYP2C19 and less than 0.1 µM on TrkA kinase.

For the molecule `COc1ccc(Nc2ccc(C(=O)c3c[nH]c4ncnc(C5CC5)c34)c(F)n2)cn1` [Compound P-4022, (4-cyclopropyl-7H-pyrrolo[2,3-d]pyrimidin-5-yl)-[2-fluoro-6-(6-methoxy-pyridin-3-ylamino)-pyridin-3-yl]-methanone], the IC50 on CYP2C19 was 5 to 10 µM; at TrkA kinase, less than 0.01 µM.

Consider `COc1ccc(Nc2ccc(Cc3c[nH]c4ncnc(C5CC5)c34)c(F)n2)cn1` [Compound P-4023, [5-(4-cyclopropyl-7H-pyrrolo[2,3-d]pyrimidin-5-ylmethyl)-6-fluoro-pyridin-2-yl]-(6-methoxy-pyridin-3-yl)-amine], for which the IC50 at CYP2C19 is less than 5 µM; at TrkA kinase it was less than 0.1 µM.

Turning to `CCOc1ccc(Nc2ccc(C(=O)c3c[nH]c4ncnc(OC)c34)c(F)n2)cn1` [Compound P-4024, [6-(6-Ethoxy-pyridin-3-ylamino)-2-fluoro-pyridin-3-yl]-(4-methoxy-7H-pyrrolo[2,3-d]pyrimidin-5-yl)-methanone], the IC50 at CYP2C19 was greater than 10 µM; at TrkA kinase, less than 0.1 µM.

Consider `CCOc1ncnc2[nH]cc(C(=O)c3ccc(Nc4ccc(OC)nc4)nc3F)c12` [Compound P-4025, (4-Ethoxy-7H-pyrrolo[2,3-d]pyrimidin-5-yl)-[2-fluoro-6-(6-methoxy-pyridin-3-ylamino)-pyridin-3-yl]-methanone], for which the figures for the concentration for half-maximal inhibition (IC50) at CYP2C19 and on TrkA kinase were 5 to 10 µM and less than 0.1 µM, respectively.

As for `CCc1ccc(Nc2ccc(Cc3c[nH]c4ncnc(C5CC5)c34)c(F)n2)cn1` [Compound P-4028, [5-(4-Cyclopropyl-7H-pyrrolo[2,3-d]pyrimidin-5-ylmethyl)-6-fluoro-pyridin-2-yl]-(6-ethyl-pyridin-3-yl)-amine], the IC50 at CYP2C19 was 5 to 10 µM; on TrkA kinase it was less than 0.01 µM.

As to `CCc1ccc(Nc2ccc(C(=O)c3c[nH]c4ncnc(C5CC5)c34)c(F)n2)cn1` [Compound P-4029, (4-Cyclopropyl-7H-pyrrolo[2,3-d]pyrimidin-5-yl)-[6-(6-ethyl-pyridin-3-ylamino)-2-fluoro-pyridin-3-yl]-methanone], the IC50 on CYP2C19 is greater than 10 µM; on TrkA kinase, less than 0.01 µM.

Take `Cc1ccc(Nc2ccc(Cc3c[nH]c4ncnc(C5CC5)c34)c(F)n2)cn1` [Compound P-4030, [5-(4-Cyclopropyl-7H-pyrrolo[2,3-d]pyrimidin-5-ylmethyl)-6-fluoro-pyridin-2-yl]-(6-methyl-pyridin-3-yl)-amine]: the values for the IC50 on CYP2C19 and on TrkA kinase were 5 to 10 µM and less than 0.1 µM, respectively.

Take `Cc1ccc(Nc2ccc(C(=O)c3c[nH]c4ncnc(C5CC5)c34)c(F)n2)cn1` [Compound P-4031, (4-Cyclopropyl-7H-pyrrolo[2,3-d]pyrimidin-5-yl)-[2-fluoro-6-(6-methyl-pyridin-3-ylamino)-pyridin-3-yl]-methanone]: the IC50 was greater than 10 µM at CYP2C19 and less than 0.1 µM on TrkA kinase.

On to `CCn1cc(Nc2ccc(Cc3c[nH]c4ncnc(C5CC5)c34)c(F)n2)cn1` [Compound P-4036, [5-(4-Cyclopropyl-7H-pyrrolo[2,3-d]pyrimidin-5-ylmethyl)-6-fluoro-pyridin-2-yl]-(1-ethyl-1H-pyrazol-4-yl)-amine], for which the IC50 is 5 to 10 µM at CYP2C19 and less than 0.1 µM on TrkA kinase.

With `CCn1cc(Nc2ccc(C(=O)c3c[nH]c4ncnc(C5CC5)c34)c(F)n2)cn1` [Compound P-4037, (4-Cyclopropyl-7H-pyrrolo[2,3-d]pyrimidin-5-yl)-[6-(1-ethyl-1H-pyrazol-4-ylamino)-2-fluoro-pyridin-3-yl]-methanone], the IC50 on CYP2C19 is greater than 10 µM; on TrkA kinase, less than 0.1 µM.

`Fc1nc(NC2CCC(F)(F)CC2)ccc1Cc1c[nH]c2ncnc(NCC(F)(F)F)c12` [Compound P-4128, 5-[[6-[(4,4-difluorocyclohexyl)amino]-2-fluoro-3-pyridyl]methyl]-N-(2,2,2-trifluoroethyl)-7H-pyrrolo[2,3-d]pyrimidin-4-amine]: the IC50 at CYP2C19 is greater than 10 µM; on TrkA kinase it was less than 1 µM.

In the case of `Fc1nc(NC2CCC(F)(F)CC2)ccc1Cc1c[nH]c2ncnc(NC3CC3)c12` [Compound P-4129, N-cyclopropyl-5-[[6-[(4,4-difluorocyclohexyl)amino]-2-fluoro-3-pyridyl]methyl]-7H-pyrrolo[2,3-d]pyrimidin-4-amine], the IC50 on CYP2C19 was greater than 10 µM; at TrkA kinase it was less than 1 µM.

For the molecule `Fc1nc(Nc2ccc(C3CC3)nc2)ccc1Cc1c[nH]c2ncnc(NCC(F)(F)F)c12` [Compound P-4130, 5-[[6-[(6-cyclopropyl-3-pyridyl)amino]-2-fluoro-3-pyridyl]methyl]-N-(2,2,2-trifluoroethyl)-7H-pyrrolo[2,3-d]pyrimidin-4-amine], the IC50 at CYP2C19 is less than 5 µM; at TrkA kinase, less than 0.01 µM.
